Measurements: patent US5795885A, “Method of inhibiting profileration of cells by administering an aminosterol compound” (priority 1995, dated 1998)

Assays:
rabbit NHE1 = experiment: internal pH recovery, PS120 fibroblasts transfected with rabbit NHE1 (BCECF-AM); type: cell-based; conditions: 5 μg/ml; acid-preloaded by 40 mM NH4Cl
Description: (§1) PS120 fibroblasts transfected with rabbit or human NHE1 were grown as described above.

human NHE1 = experiment: internal pH recovery, PS120 fibroblasts transfected with human NHE1 (BCECF-AM); type: cell-based; conditions: 5 μg/ml; acid-preloaded by 40 mM NH4Cl
Description: as §1

[1] = test system: bovine pulmonary endothelial cells; experiment: growth inhibition of bovine pulmonary endothelial cells in vitro; type: cell-based; conditions: 1 μg/ml
[2] = test system: human epithelial cell line MCF 10A; experiment: growth inhibition of human epithelial cells in vitro; type: cell-based; conditions: 10 μg/ml
[3] = test system: human foreskin fibroblasts; experiment: growth inhibition of human foreskin fibroblasts in vitro; type: cell-based; conditions: 10 μg/ml
[4] = test system: human microvascular cells; experiment: endothelial cell cord formation in vitro; type: cell-based
From the text: Endothelial cells have the capacity in vitro to form tubular aggregates resembling capillaries in various early stages of formation. This conversion occurs under relatively specific conditions, in which essential growth factors along with an effective substratum are provided. It has been shown that both the interaction of growth factors with the endothelial cell and its attachment to a substratum activate the NHE. The activation of this exchanger is believed to be required for subsequent morphologic transformation of the endothelial cell into a multicellular tubular structure.
To assess the effect of compounds on the cord-like structures formed by human microvascular cells when plated in the presence of VEGF (Vascular Endothelial Growth Factor) and basic fibroblast growth factor on a collagen matrix, a standard cord formation assay was used.

[5] = test system: chick embryo vitelline capillaries; experiment: chick embryo vitelline capillary regression assay; type: in vivo; parameters: key to vitelline capillary regression: +: Vascular reactivity; 0: No vascular reactivity; +/-: Equivocal reactivity; conditions: for vitelline capillary regression: 60 minutes
Summary of the method: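 Compounds applied to 3- to 5-day chick embryos in 0.1 ml of 15% Ficol 400 in PBS. Regression of vitelline capillaries, seen as pinching-off of capillary loops into enclosed sacs, was scored visually after 60 minutes.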

human melanoma 1205Lu = experiment: growth of human melanoma 1205Lu in immunocompromised RAG-1 mice; type: in vivo, RAG-1 mice (human tumor)
From the text: As apparent from FIG. 5, melanoma 1205Lu develops aggressively in RAG-1 mice after implantation.

[6] = test system: VX2 carcinoma implanted into the rabbit cornea; experiment: tumor-induced (VX2 carcinoma) corneal neovascularization in rabbits; type: in vivo; conditions: ELVAX 40 P pellet
From the text: The implantation of VX2 carcinoma into the rabbit cornea results in the induction of new blood vessels within several days (Tamargo et al., Cancer Research 51, 1991, 672-675). It is believed that this carcinoma secretes growth factors that stimulate new blood-vessel growth. Thus, this model is indicative in vivo evidence of therapeutic utility in the treatment of pathological disorders of vascularization, including the metastatic spread of tumors, diabetic retinopathy, macular degeneration, and rheumatoid arthritis.
This experiment followed the published protocol--tumor was implanted adjacent to a polymer containing a concentration of the agent to be evaluated. The polymer releases the agent slowly in the immediate neighborhood of the tumor, providing sustained high local concentrations of the agent. In this experiment, squalamine introduced into a pellet of ELVAX 40 P (DuPont, Wilmington, Del.) inhibited new blood vessel formation by about 60% at days 7 and 14, and by about 25% at day 21.

[7] = test system: PHA-stimulated human lymphocytes; experiment: inhibition of mitogen (PHA)-stimulated growth of human T-cells; type: cell-based
From the text: Results are tabulated below.

Murine B16 melanoma = experiment: growth inhibition in vitro; type: cell-based; conditions: except at very high concentrations
From the text: As set forth in Table 7 below, all malignant tumors evaluated in tissue culture, endothelial cells and vascular smooth muscle cells were sensitive to inhibition. Thus, compound 1436 has application in the control of growth factor dependent proliferation of many types of tissue.

[8] = test system: human coronary artery smooth muscle; experiment: proliferation of human coronary artery smooth muscle in vitro; type: cell-based; conditions: FIG. 15
From the text: Aminosterols of the invention may also have utility in inhibiting the growth factor mediated proliferation of smooth muscle within the artery. Following coronary angioplasty, reocclusion commonly occurs, secondary to reparative proliferation of the vascular smooth muscle within the wall of the surgically manipulated blood vessel. This process generally takes place over the course of 7-10 days. To evaluate whether an agent could prevent the growth factor mediated proliferation of smooth muscle within the artery, compound 1436 was evaluated in vitro for its effect on the proliferation of human coronary artery smooth muscle. Results for compound 1436 are shown in FIG. 13, and those for squalamine are shown in FIG. 14, with FIG. 15 being a composite logarithmic plot.

[9] = test system: stage 59-60 Xenopus tadpoles; conditions: 10 μg/ml in water
[10] = test system: bacteria, fungi and protozoa; conditions: cited from earlier work
[11] = test system: human umbilical venous endothelial cells; experiment: LPS/TNF-α-induced neutrophil adherence to human umbilical venous endothelial cells; conditions: 10, 1.0 or 0.1 μg; three different subjects
Description: In these experiments, approximately 2×10^5 human umbilical venous cells (passage 2-6) were plated per well. The cells were grown in serum-free media overnight. For induction, either TNF-α (40 ng/ml) was added to endothelial cells for 6 hours prior to adding neutrophils or LPS (100 ng/ml) was added for 4-6 hours. […] After activation of the endothelial cells, approximately 50×10^6 neutrophils were added per well. The plates were gently rocked for 30 minutes at room temperature, followed by removal of the media and washing in serum-free media three times and then photographing of each well. […] A monoclonal Ab to ICAM-1 was a positive control.

rabbit NHE3 = rabbit NHE3 (Oryctolagus cuniculus, UniProt P26432); conditions: 5 μg/ml
Sequence of rabbit NHE3 (P26432 30-832): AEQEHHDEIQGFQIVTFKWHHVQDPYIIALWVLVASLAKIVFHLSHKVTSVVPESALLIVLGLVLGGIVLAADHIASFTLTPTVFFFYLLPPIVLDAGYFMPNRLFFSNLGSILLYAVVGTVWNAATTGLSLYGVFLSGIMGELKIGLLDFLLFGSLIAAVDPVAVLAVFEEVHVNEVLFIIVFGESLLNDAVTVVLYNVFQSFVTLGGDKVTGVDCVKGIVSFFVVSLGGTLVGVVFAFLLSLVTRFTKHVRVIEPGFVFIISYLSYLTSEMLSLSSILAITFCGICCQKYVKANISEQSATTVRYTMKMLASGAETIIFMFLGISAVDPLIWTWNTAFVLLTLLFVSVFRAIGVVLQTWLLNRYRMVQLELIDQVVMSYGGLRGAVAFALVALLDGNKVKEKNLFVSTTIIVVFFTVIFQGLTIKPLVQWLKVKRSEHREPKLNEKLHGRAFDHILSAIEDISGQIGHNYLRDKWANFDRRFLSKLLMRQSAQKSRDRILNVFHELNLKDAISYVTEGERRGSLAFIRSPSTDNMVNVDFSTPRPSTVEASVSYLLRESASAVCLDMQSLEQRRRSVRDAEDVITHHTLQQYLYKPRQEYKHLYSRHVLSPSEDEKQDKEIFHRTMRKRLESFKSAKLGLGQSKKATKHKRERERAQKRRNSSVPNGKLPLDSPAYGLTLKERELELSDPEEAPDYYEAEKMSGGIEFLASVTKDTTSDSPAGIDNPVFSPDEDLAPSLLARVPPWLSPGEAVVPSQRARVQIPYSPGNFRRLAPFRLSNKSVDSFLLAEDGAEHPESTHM
Description: Internal pH was measured either following acid loading or in the absence of an acid-loading challenge, with the results shown in FIGS. 1A and 1B.
Specifically, PS120 fibroblasts transfected with rabbit NHE3 were grown in supplemented Dulbecco's-modified Eagle's medium as described by Levine et al., J. Biol. Chem. 268, 1993, 25527-25535. […] For cells not acid-preloaded, the actual internal pH value was monitored as a function of time following addition of squalamine, with the results depicted in FIG. 1B.
PS120 fibroblasts transfected with rabbit NHE3 were grown and acid preloaded by exposure to 40 mM NH4 Cl as described above in conjunction with FIGS. 1A and 1B. Internal cellular pH changes expressed as the rate of pH recovery as a function of restored extracellular sodium ion concentration following exposure to 10 μg/ml of the compound were assayed with the fluorescent dye BCECF-AM as described above.

In the case of `CC(C)[C@@H](CC[C@@H](C)[C@H]1CC[C@H]2[C@@H]3[C@H](O)C[C@H]4C[C@@H](NCCCNCCCCN)CC[C@]4(C)[C@H]3CC[C@]12C)OS(=O)(=O)O` [Squalamine, squalamine], the “inhibition of rabbit NHE1” value (rabbit NHE1) is reported as “no inhibitory activity”, the “inhibition of human NHE1” value (human NHE1) is reported as “no inhibitory activity” and the “growth of bovine pulmonary artery endothelial cells (BPE)” value [1] is reported as “inhibited the growth”. The “growth of epithelial line” value [2] was “no effect on the growth”, the “growth of fibroblast line” value [3] was “no effect on the growth” and the “effect on endothelial cord formation” value ([4]; 0.01 μg/ml) was “-”. For the same molecule, the “effect on endothelial cord formation” value ([4]; 0.1 μg/ml) was “+”, the “effect on endothelial cord formation” value ([4]; 1.0 μg/ml) was “+” and the “effect on endothelial cord formation” value ([4]; 10.0 μg/ml) was “+”. For the same molecule, the “cell viability or proliferation” value ([4]; at these concentrations) was “does not appear to profoundly affect cell viability or proliferation”, the vitelline capillary regression ([5]; 0.001 μg applied) was 0 and the vitelline capillary regression ([5]; 0.01 μg applied) was “+”. For the same molecule, the vitelline capillary regression ([5]; 0.1 μg applied) was “+”, the vitelline capillary regression ([5]; 1 μg applied) was “+” and the vitelline capillary regression ([5]; 10 μg applied) was “+”. The hemolysis ([5]; 0.1 ml in 15% Ficol in PBS) was “absence of hemolysis”, the hemorrhage ([5]; 0.1 ml in 15% Ficol in PBS) was “No hemorrhage was seen” and the “lag period before vessel constriction” value ([5]; 0.1 ml in 15% Ficol in PBS) was “around 15 minutes”. For the same molecule, the “activity in vitelline capillary regression assay (in words)” value ([5]; in vivo) was “especially active”, the “effect on chick embryo vitelline capillaries (in words)” value ([5]; in vivo) was “found to disrupt vitelline capillaries in 3- to 5-day chick embryos” and the “suppression of melanoma 1205Lu growth” value (human melanoma 1205Lu; 10, 20, 40 mg/kg/d, after tumors reached about 0.1 ml) was “found to suppress the growth of melanoma 1205Lu in RAG-1 mice in a dose-dependent fashion”. For the same molecule, the “tumor growth after cessation of treatment” value (human melanoma 1205Lu; in vivo) was “tumor growth continued at a rate similar to untreated controls”, the “inhibition of new blood vessel formation” value ([6]; day 7) was “about 60%” and the “inhibition of new blood vessel formation” value ([6]; day 14) was “about 60%”. The “inhibition of blast transformation (in words)” value ([7]; 10 μg/ml) was “Some effect was observed”, the inhibition at 1 µg/mL ([7]; Homo sapiens, Lymphocyte, 1 μg/ml, read-out: inhibition of PHA-stimulated human lymphocytes (% control)) was 3% and the inhibition at 5 µg/mL ([7]; Homo sapiens, Lymphocyte, 5 μg/ml, read-out: inhibition of PHA-stimulated human lymphocytes (% control)) was 8%. The inhibition at 10 µg/mL ([7]; Homo sapiens, Lymphocyte, 10 μg/ml, read-out: inhibition of PHA-stimulated human lymphocytes (% control)) was 10%, the “cytostatic activity against B16 in culture” value (Murine B16 melanoma) was “minimal cytostatic activity against B16 in culture” and the “suppression of growth (in words)” value [8] was “suppress in vitro the growth of human coronary artery smooth muscle”. The “time to death of tadpole” value [9] was ≤ 2 h, the “pharmacological response in tadpole” value ([9]; listed as Compound 1256 (Squalamine)) was “Vascular occlusion in fine capillaries of tail. No effect on vascular flow through hands or feet” and the antibiotic activity [10] was “broad-spectrum antibiotic, killing bacteria, fungi and protozoa”. The “inhibition of neutrophil adherence” value [11] was “no inhibition”, the “inhibition of NHE3” value (rabbit NHE3; acid-preloaded by 40 mM NH4Cl) was “inhibited NHE3 with respect to proton concentration at both Km and Vmax levels” and the “resting pH” value (rabbit NHE3; cells not acid-preloaded) was “the resting pH of these cells was also inhibited”.
